According to patent US4588526A, “Bronchodilatory azepino(1,2-A)pyrimidine derivatives and acid addition salts thereof and bronchodilating pharmaceutical compositions containing same” (Chinoin Gyogyszer es Vegyeszeti Termekek Gyara Rt, priority 1982, dated 1986):
pIC50: −log10 of the molar value. Values belong to the molecule of their own block, whether it stands above or below them.

How the values were obtained:
[1] = Drugs of the Future 1981, 6, 362; cited from earlier work
[2] = test system: spasm induced by histamine; experiment: Konzett test, inhibition of spasm induced by histamine; format: in vivo, guinea-pigs; conditions: guinea-pig Konzett test; for ED50: Cavia porcellus, read-out: ID50 spasm inhibition induced by histamine
Experimental: (§1) The activity was determined on the basis of inhibition of spasm induced by three endogenic spasmogenic agents (5-hydroxy-tryptamine histamine, acetyloholine).

human bronchus = experiment: Human bronchus test, inhibition of Carbacol-induced contraction; conditions: contraction by 1 μmole Carbacol, 37 C; for pIC50: amount for 50% inhibition
Text: As a further Example the activity of the compound of the formula IX is illustrated by human bronchus test. Human bronchus obtained surgically was dipped into an oxygenized physiological solution of 37 C. The contraction is induced by 1 μmole Carbacol.

[3] = test system: spasm induced by 5-hydroxy-tryptamine; experiment: Konzett test, inhibition of spasm induced by 5-hydroxy-tryptamine; format: in vivo, guinea-pigs; conditions: guinea-pig Konzett test; for ED50: Cavia porcellus, read-out: ID50 spasm inhibition induced by 5-hydroxy-tryptamine
Experimental: as §1

[4] = test system: spasm induced by acetylcholine; experiment: Konzett test, inhibition of spasm induced by acetylcholine; format: in vivo, guinea-pigs; conditions: guinea-pig Konzett test; for ED50: Cavia porcellus, read-out: ID50 spasm inhibition induced by acetylcholine
Experimental: as §1

[5] = test system: spasm induced by three endogenic spasmogenic agents; experiment: Konzett test, duration of activity and comparison with known compounds; format: in vivo, guinea-pigs; conditions: guinea-pig Konzett test; marks all three ID50 values
Experimental: The activity of the compounds of the invention was examined by Konzett test (Konzett H. and, Rossler R., Arch. Exp. Path. Pharm., 1940, 195 71) using guinea-pigs. The activity was determined on the basis of inhibition of spasm induced by three endogenic spasmogenic agents (5-hydroxy-tryptamine histamine, acetyloholine).

Molecule: O=c1c2ccccc2nc2n1CCCCC2 [6,7,8,9,10,12-hexahydroazepino[2,1-b]quinazoline-12-one]
bronchodilatory activity [1]: displays bronchodilatory activity

Molecule: theophilline anisate [reference compound]
ID50 spasm inhibition induced by histamine [2]: 14.0 µmol/kg
pIC50 (human bronchus): 3.82
spasm reduction (human bronchus; dosage 10^-3.75 mole/1, 177.8 µM): 64%
spasm reduction (human bronchus; dosage 10^-4 (10^-4.0) mole/1, 100 µM): 28%
spasm reduction (human bronchus; dosage 10^-4.25 mole/1, 56.23 µM): 10%
spasm reduction (human bronchus; dosage 10^-4.5 mole/1, 31.62 µM): 5%
ID50 spasm inhibition induced by 5-hydroxy-tryptamine [3]: 14.0 µmol/kg
ID50 spasm inhibition induced by acetylcholine [4]: 22.0 µmol/kg

Molecule: O=c1c2c(nc3n1CCCCC3)CCCC2 [drawing 10]
ID50 spasm inhibition induced by histamine [2]: 5.4 µmol/kg
ID50 spasm inhibition induced by 5-hydroxy-tryptamine [3]: 15.7 µmol/kg
ID50 spasm inhibition induced by acetylcholine [4]: 6.3 µmol/kg

Molecule: O=c1c2c(nc3n1CCCCC3)CCC2
ED50 [2]: 6.5 µmol/kg
ED50 [3]: 13.8 µmol/kg
ED50 [4]: 3.7 µmol/kg

pIC50 (human bronchus; Homo sapiens): 5.27
Molecule: O=c1c2c(nc3n1CCCCC3)CCCC2 [IX]
inhibition at 100 µM (human bronchus; Homo sapiens, dosage 10^-4 (10^-4.0) mole/1, read-out: spasm reduction): 184%
inhibition at 31.62 µM (human bronchus; Homo sapiens, dosage 10^-4.5 mole/1, read-out: spasm reduction): 113%
inhibition at 10 µM (human bronchus; Homo sapiens, dosage 10^-5.0 mole/1, read-out: spasm reduction): 48%
inhibition at 3.162 µM (human bronchus; Homo sapiens, dosage 10^-5.5 mole/1, read-out: spasm reduction): 23%
inhibition at 1 µM (human bronchus; Homo sapiens, dosage 10^-6.0 mole/1, read-out: spasm reduction): 3%

Molecule: O=c1c2c(nc3n1CCCCC3)CCCC2 [drawing 9]
ED50 [2]: 3.1 µmol/kg
ID50 spasm inhibition induced by 5-hydroxy-tryptamine [3]: 3.0 µmol/kg
duration of activity (footnote x) [5]: long-lasting activity
ED50 [4]: 7.8 µmol/kg

Molecule: O=c1c2ccccc2nc2n1CCCCC2 [drawing 12, reference compound]
ED50 [2]: 6.2 µmol/kg
ED50 [3]: 36 µmol/kg
ED50 [4]: 26.3 µmol/kg
